Like-named read-outs stand apart in the source and are kept apart here.
How the values were obtained:
[1] = target: T1, glutathione-S-transferase (GST) tagged LXRbeta LBD (ligand binding domain) (Homo sapiens, UniProt P55055); assay: LanthaScreen TR-FRET Liver X Receptor Coactivator Assay, LXR beta; assay type: biochemical; conditions: for EC50: LXR beta IP, potency (Inflection Point), compound-induced co-activator recruitment, TR-FRET; for Emax: read-out: LXR beta actiivty at max dose, efficacy (% Emax) in relation to reference dual agonist T0901317
T1 construct: purchased Invitrogen pv4658
T1 sequence (P55055 222-460 limits assumed): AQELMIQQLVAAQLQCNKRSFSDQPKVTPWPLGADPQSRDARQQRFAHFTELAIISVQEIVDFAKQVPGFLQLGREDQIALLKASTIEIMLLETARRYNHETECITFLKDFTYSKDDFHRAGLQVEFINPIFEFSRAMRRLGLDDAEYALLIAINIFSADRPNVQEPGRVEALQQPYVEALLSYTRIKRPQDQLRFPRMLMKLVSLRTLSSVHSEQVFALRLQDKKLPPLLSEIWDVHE
Experimental: (§1) While running the LanthaScreen™ TR-FRET Liver X Receptor Coactivator Assay, LXR alpha-LBD or LXR beta-LBD was added to ligand test compounds followed by addition of a mixture of a fluorescein-labelled coactivator peptide and terbium-conjugated anti-GST antibody. After an incubation period at room temperature, TR-FRET (time-resolved fluorescence resonance energy transfer) was measured using a filter-based instrument capable of TR-FRET, e.g. PerkinElmer Envision.

[2] = target: T2, glutathione-S-transferase (GST) tagged LXRalpha LBD (ligand binding domain) (Homo sapiens, UniProt Q13133); assay: biochemical; conditions: for EC50: LXR alpha IP
T2 construct: purchased Invitrogen pv4655
T2 sequence (Q13133 209-447 limits assumed): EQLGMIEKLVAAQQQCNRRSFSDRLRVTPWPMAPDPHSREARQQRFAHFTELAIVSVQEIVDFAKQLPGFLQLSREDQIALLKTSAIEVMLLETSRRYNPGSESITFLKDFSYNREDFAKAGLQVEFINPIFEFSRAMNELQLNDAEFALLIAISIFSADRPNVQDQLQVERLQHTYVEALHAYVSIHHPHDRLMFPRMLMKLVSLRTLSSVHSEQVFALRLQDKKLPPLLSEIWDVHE
Experimental: as §1

[3] = potency (Inflection Point), compound-induced co-activator recruitment, TR-FRET
[4] = read-out: LXR alpha actiivty at max dose, efficacy (% Emax) in relation to reference dual agonist T0901317

Row | EC50 [2] | Emax ([2]; read-out: LXR alpha actiivty at max dose) | Compound | EC50 [1] | Emax [1] | EC50 [2, 3] | Emax [2, 4] | LXR alpha IP [2, 3]
1 | – | – | O=C(c1ccc(OCCCCC2CCN(C(=O)[C@](O)(c3ccccc3)C(F)(F)F)CC2)cc1Cl)N1CCC[C@@H]1CO (single isomer, unassigned) [Example 8-8, (R or S)-1-(4-(4-(3-chloro-4-((R or S)-2-(hydroxymethyl)pyrrolidine-1-carbonyl)phenoxy)butyl)piperidin-1-yl)-3,3,3-trifluoro-2-hydroxy-2-phenylpropan-1-one] | 21 nM | 44% | 653 nM | 27% | –
2 | – | – | O=C(NCC(F)F)c1ccc(OCCCCC2CCN(C(=O)[C@](O)(c3ccccc3)C(F)(F)F)CC2)cc1Cl (single isomer, unassigned) [Example 8-9, (R or S)-2-chloro-N-(2,2-difluoroethyl)-4-(4-(1-(3,3,3-trifluoro-2-hydroxy-2-phenylpropanoyl)piperidin-4-yl)butoxy) benzamide] | 94 nM | 82% | 856 nM | 34% | –
3 | – | – | CCNC(=O)c1ccc(OCCCCC2CCN(C(=O)[C@](O)(c3ccccc3)C(F)(F)F)CC2)cc1Cl (single isomer, unassigned) [Example 8-10, (R or S)-2-chloro-N-ethyl-4-(4-(1-(3,3,3-trifluoro-2-hydroxy-2-phenylpropanoyl)piperidin-4-yl)butoxy) benzamide] | 30 nM | 76% | 719 nM | 28% | –
4 | – | – | CC(C)(C)OC(=O)NC1CN(C(=O)c2ccc(OCCCCC3CCN(C(=O)[C@](O)(c4ccccc4)C(F)(F)F)CC3)cc2Cl)C1 (single isomer, unassigned) [Example 8-11, (R or S)-tert-butyl 1-(2-chloro-4-(4-(1-(3,3,3-trifluoro-2-hydroxy-2-phenylpropanoyl)piperidin-4-yl)butoxy)benzoyl) azetidin-3-ylcarbamate] | 18 nM | 56% | 520 nM | 32% | –
5 | – | – | CN(C(=O)c1ccc(OCCCCC2CCN(C(=O)[C@](O)(c3ccccc3)C(F)(F)F)CC2)cc1Cl)C1CC1 (single isomer, unassigned) [Example 8-12, (R or S)-2-chloro-N-cyclopropyl-N-methyl-4-(4-(1-(3,3,3-trifluoro-2-hydroxy-2-phenylpropanoyl)piperidin-4-yl)butoxy) benzamide] | 16 nM | 64% | 351 nM | 7% | –
6 | – | – | CN(C(=O)c1ccc(OCCCCC2CCN(C(=O)[C@](O)(c3ccccc3)C(F)(F)F)CC2)cc1Cl)C1COC1 (single isomer, unassigned) [Example 8-13, (R or S)-2-chloro-N-methyl-N-(oxetan-3-yl)-4-(4-(1-(3,3,3-trifluoro-2-hydroxy-2-phenylpropanoyl)piperidin-4-yl)butoxy) benzamide] | 22 nM | 73% | 412 nM | 29% | –
7 | – | – | O=C(c1ccc(OCCCCC2CCN(C(=O)C(O)(c3ccccc3)C(F)(F)F)CC2)cc1Cl)N1C[C@H]2CC[C@@H]1C2 (single isomer, unassigned) [Example 8-14, (R or S)-1-(4-(4-(4-((1R,4S)-2-azabicyclo[2.2.1]heptane-2-carbonyl)-3-chlorophenoxy)butyl)piperidin-1-yl)-3,3,3-trifluoro-2-hydroxy-2-phenylpropan-1-one] | 38 nM | 48% | 227 nM | 19% | –
8 | – | – | O=C(c1ccc(OCCCCC2CCN(C(=O)C(O)(c3ccccc3)C(F)(F)F)CC2)cc1Cl)N1C[C@@H]2CC[C@H]1C2 (single isomer, unassigned) [Example 8-15, (R or S)-1-(4-(4-(4-((1S,4R)-2-azabicyclo[2.2.1]heptane-2-carbonyl)-3-chlorophenoxy)butyl)piperidin-1-yl)-3,3,3-trifluoro-2-hydroxy-2-phenylpropan-1-one] | 64 nM | 36% | 410 nM | 9% | –
9 | – | – | CN(C(=O)c1ccc(OCCCCC2CCN(C(=O)[C@](O)(c3ccccc3)C(F)(F)F)CC2)cc1Cl)[C@H]1CCOC1 (single isomer, unassigned) [Example 8-16, 2-chloro-N-methyl-N-((S or R)-tetrahydro-furan-3-yl)-4-(4-(1-((R or S)-3,3,3-trifluoro-2-hydroxy-2-phenylpropanoyl)piperidin-4-yl)butoxy) benzamide] | 10 nM | 71% | 116 nM | 32% | –
10 | – | – | CC(C)N(C)C(=O)c1ccc(OCCCCC2CCN(C(=O)[C@](O)(c3ccccc3)C(F)(F)F)CC2)cc1Cl (single isomer, unassigned) [Example 8-17, (R or S)-2-chloro-N-isopropyl-N-methyl-4-(4-(1-(3,3,3-trifluoro-2-hydroxy-2-phenylpropanoyl)piperidin-4-yl)butoxy) benzamide] | 17 nM | 50% | – | 10% | No IP
11 | – | – | CNC(=O)c1ccc(OCCCCC2CCN(C(=O)[C@](O)(c3cccc(OC)c3)C(F)(F)F)CC2)cc1Cl (single isomer, unassigned) [Example 8-18, (R or S)-2-chloro-N-methyl-4-(4-(1-(3,3,3-trifluoro-2-hydroxy-2-(3-methoxyphenyl)propanoyl)piperidin-4-yl)butoxy) benzamide] | 14 nM | 91% | 742 nM | 31% | –
12 | – | – | CN(C)CCCNC(=O)c1ccc(OCCCCC2CCN(C(=O)[C@](O)(c3ccccc3)C(F)(F)F)CC2)cc1Cl (single isomer, unassigned) [Example 8-19, (R or S)-2-chloro-N-(3-(dimethylamino)propyl)-4-(4-(1-(3,3,3-trifluoro-2-hydroxy-2-phenylpropanoyl)piperidin-4-yl)butoxy) benzamide] | 33 nM | 53% | 1240 nM | 36% | –
13 | 117 nM | 14% | COc1cccc([C@@](O)(C(=O)N2CCC([C@H]3C[C@H]3CCOc3ccc(C(=O)N(C)C)c(Cl)c3)CC2)C(F)(F)F)c1 (single isomer, unassigned) [Example 10-1, 2-chloro-N,N-dimethyl-4-(2-((1S,2R or 1R, 2S)-2-(1-((R or S)-3,3,3-trifluoro-2-hydroxy-2-(3-methoxyphenyl)propanoyl)piperidin-4-yl)cyclopropyl)ethoxy)benzamide] | 5 nM | 66% | – | – | –
14 | – | – | CN(C)C(=O)c1ccc(OCC[C@@H]2C[C@@H]2C2CCN(C(=O)c3c(F)cccc3F)CC2)cc1Cl (single isomer, unassigned) [Example 10-2, 2-chloro-4-(2-((1S,2R or 1R, 2S)-2-(1-(2,6-difluorobenzoyl)piperidin-4-yl)cyclopropyl)ethoxy)-N,N-dimethylbenzamide] | 106 nM | 69% | 1510 nM | 14% | –
15 | – | – | CNC(=O)c1ccc(OCC[C@@H]2C[C@@H]2C2CCN(C(=O)[C@](O)(c3cc(F)cc(F)c3)C(F)(F)F)CC2)cc1Cl (single isomer, unassigned) [Example 10-3, 2-chloro-4-(2-((1S,2R or 1R, 2S)-2-(1-((R or S)-2-(3,5-difluorophenyl)-3,3,3-trifluoro-2-hydroxypropanoyl)piperidin-4-yl)cyclopropyl)ethoxy)-N-methylbenzamide] | 2 nM | 116% | 28 nM | 63% | –
16 | – | – | CNC(=O)c1ccc(OCC[C@@H]2C[C@@H]2C2CCN(C(=O)[C@](O)(c3cccc(OC)c3)C(F)(F)F)CC2)cc1Cl (single isomer, unassigned) [Example 10-5, 2-chloro-N-methyl-4-(2-((1S,2R or 1R, 2S)-2-(1-((R or S)-3,3,3-trifluoro-2-hydroxy-2-(3-methoxyphenyl)propanoyl)piperidin-4-yl)cyclopropyl)ethoxy) benzamide] | 7 nM | 75% | 209 nM | 13% | –
17 | – | – | CN(C)C(=O)c1ccc(OCC[C@@H]2C[C@@H]2C2CCN(C(=O)[C@@](O)(c3ccccc3)C(F)(F)F)CC2)nc1Cl (single isomer, unassigned) [Example 10-6, 2-chloro-N,N-dimethyl-6-(2-((1S,2R or 1R,2S)-2-(1-((S or R)-3,3,3-trifluoro-2-hydroxy-2-phenylpropanoyl)piperidin-4-yl)cyclopropyl)ethoxy) nicotinamide] | 12 nM | 71% | 206 nM | 36% | –
